In PubChem BioAssay (NCI):
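Grown in 96-well plates, cells were treated for 48 hours with each compound at five concentrations. Insufficient inhibition: endpoint recorded as highest concentration tested. The concentration for 50% growth inhibition is given as GI50. TGI marks complete inhibition of growth.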

What was measured:
Experiment in all cases: DTP human tumour cell line panel, 48 h
[1] = tested on: 786-0 renal
[2] = tested on: A498 renal
[3] = tested on: A549 NSCLC
[4] = tested on: ACHN renal
[5] = tested on: BT-549 breast
[6] = tested on: CAKI-1 renal
[7] = tested on: CCRF-CEM leukemia
[8] = tested on: COLO 205 colon
[9] = tested on: DU-145 prostate
[10] = tested on: EKVX NSCLC
[11] = tested on: HCC-2998 colon
[12] = tested on: HCT-116 colon
[13] = tested on: HCT-15 colon
[14] = tested on: HL-60(TB) leukemia
[15] = tested on: HOP-62 NSCLC
[16] = tested on: HOP-92 NSCLC
[17] = tested on: HS 578T breast
[18] = tested on: HT29 colon
[19] = tested on: IGROV1 ovarian
[20] = tested on: K-562 leukemia
[21] = tested on: KM12 colon
[22] = tested on: LOX IMVI melanoma
[23] = tested on: M14 melanoma
[24] = tested on: MALME-3M melanoma
[25] = tested on: MCF7 breast
[26] = tested on: MDA-MB-231 breast
[27] = tested on: MDA-MB-435
[28] = tested on: MOLT-4 leukemia
[29] = tested on: NCI-H226 lung
[30] = tested on: NCI-H23 lung
[31] = tested on: NCI-H460 lung
[32] = tested on: NCI-H522 lung
[33] = tested on: NCI/ADR-RES ovarian
[34] = tested on: OVCAR-3 ovarian
[35] = tested on: OVCAR-4 ovarian
[36] = tested on: OVCAR-5 ovarian
[37] = tested on: OVCAR-8 ovarian
[38] = tested on: PC-3 prostate
[39] = tested on: RPMI-8226 leukemia
[40] = tested on: RXF 393 renal
[41] = tested on: SF-268 CNS
[42] = tested on: SF-295 CNS
[43] = tested on: SF-539 CNS
[44] = tested on: SK-MEL-2 melanoma
[45] = tested on: SK-MEL-28 melanoma
[46] = tested on: SK-MEL-5 melanoma
[47] = tested on: SK-OV-3 ovarian
[48] = tested on: SN12C renal
[49] = tested on: SNB-19 CNS
[50] = tested on: SNB-75 CNS
[51] = tested on: SR leukemia
[52] = tested on: SW-620 colon
[53] = tested on: T-47D breast
[54] = tested on: TK-10 renal
[55] = tested on: U251 CNS
[56] = tested on: UACC-257 melanoma
[57] = tested on: UACC-62 melanoma
[58] = tested on: UO-31 renal

CN(Cc1cccc(Cl)c1)c1ccc(CO)c(Cl)c1
GI50 [1]: 12.4 µM
TGI [1]: 27.2 µM
GI50 [2]: 0.041 µM
TGI [2]: 0.169 µM
GI50 [3]: 5.19 µM
TGI [3]: 23.9 µM
GI50 [4]: 21.9 µM
TGI [4]: 93.5 µM
GI50 [5]: 14.6 µM
TGI [5]: 34.5 µM
GI50 [6]: 2.36 µM
TGI [6]: 23.4 µM
GI50 [7]: 22.7 µM
TGI [7]: > 73.6 µM
GI50 [8]: 7.39 µM
TGI [8]: 20.9 µM
GI50 [9]: 21 µM
TGI [9]: > 51.1 µM
GI50 [10]: 18.4 µM
TGI [10]: 52.1 µM
GI50 [11]: 13.7 µM
TGI [11]: 34.1 µM
GI50 [12]: 0.481 µM
TGI [12]: 11.3 µM
GI50 [13]: 16.1 µM
TGI [13]: > 76.7 µM
GI50 [14]: 13.9 µM
TGI [14]: 45 µM
GI50 [15]: 6.77 µM
TGI [15]: 25.6 µM
GI50 [16]: 3.15 µM
TGI [16]: 19.8 µM
GI50 [17]: 19.7 µM
TGI [17]: > 64.5 µM
GI50 [18]: 9.93 µM
TGI [18]: 31.2 µM
GI50 [19]: 0.448 µM
TGI [19]: 4.16 µM
GI50 [20]: 8.76 µM
TGI [20]: > 100 µM
GI50 [21]: 18.7 µM
TGI [21]: 43.3 µM
GI50 [22]: 14.2 µM
TGI [22]: 27.5 µM
GI50 [23]: 17.5 µM
TGI [23]: 49.3 µM
GI50 [24]: 18.7 µM
TGI [24]: 42.3 µM
GI50 [25]: 1.55 µM
TGI [25]: 15.8 µM
GI50 [26]: 17.4 µM
TGI [26]: 59.9 µM
GI50 [27]: 24.3 µM
TGI [27]: 85.5 µM
GI50 [28]: 20 µM
TGI [28]: 56.6 µM
GI50 [29]: 0.113 µM
TGI [29]: 0.284 µM
GI50 [30]: 11.5 µM
TGI [30]: 46.1 µM
GI50 [31]: 1.44 µM
TGI [31]: 15.2 µM
GI50 [32]: 17.2 µM
TGI [32]: 41.4 µM
GI50 [33]: 14.6 µM
TGI [33]: 44.1 µM
GI50 [34]: 3.46 µM
TGI [34]: 14 µM
GI50 [35]: 2.33 µM
TGI [35]: 16.5 µM
GI50 [36]: 0.602 µM
TGI [36]: 3.84 µM
GI50 [37]: 15.8 µM
TGI [37]: 53.8 µM
GI50 [38]: 18 µM
TGI [38]: > 54.3 µM
GI50 [39]: 12.2 µM
TGI [39]: 55 µM
GI50 [40]: 8.55 µM
TGI [40]: 23.4 µM
GI50 [41]: 24 µM
TGI [41]: > 53.5 µM
GI50 [42]: 3.7 µM
TGI [42]: 32.1 µM
GI50 [43]: 18.7 µM
TGI [43]: 38.7 µM
GI50 [44]: 9.88 µM
TGI [44]: 27.4 µM
GI50 [45]: 16.4 µM
TGI [45]: 43.9 µM
GI50 [46]: 7.47 µM
TGI [46]: 20.7 µM
GI50 [47]: 8.16 µM
TGI [47]: 28.3 µM
GI50 [48]: 14.3 µM
TGI [48]: 37.2 µM
GI50 [49]: 27.3 µM
TGI [49]: > 100 µM
GI50 [50]: 14.7 µM
TGI [50]: 49.7 µM
GI50 [51]: 22.4 µM
TGI [51]: 72.8 µM
GI50 [52]: 5.93 µM
TGI [52]: > 42.9 µM
GI50 [53]: 0.746 µM
TGI [53]: 5.17 µM
GI50 [54]: 0.215 µM
TGI [54]: 1.36 µM
GI50 [55]: 4.21 µM
TGI [55]: 19.2 µM
GI50 [56]: 0.569 µM
TGI [56]: 2.15 µM
GI50 [57]: 0.321 µM
TGI [57]: 3.75 µM
GI50 [58]: 8.41 µM
TGI [58]: 37.4 µM
